Experimental findings from US10617664B2, “Brain derived PPARα ligands” (Rush University Medical Center, priority 2015, dated 2020) are described below.

Structures are written as SMILES.

What all share (type): cell-based, mouse
The test system of assay [1] is PPRE-driven luciferase activity. The assay is described as follows: PPRE-luciferase assay in Pparb-null astrocytes with PPARγ antagonist GW9662. Conditions: for PPRE luciferase activity: Pparb-null astrocytes; for effect of GW9662 on ligand-mediated increase in PPRE-luciferase activity: Pparb-null astrocytes pre-treated with GW9662. On the procedure:
FIG. 16A) Pparb-null primary astrocytes plated at 60-70% confluence in 12-well plates were transfected with 0.25 μg of tkPPREx3-Luc (a PPRE-dependent luciferase reporter construct). Twenty-four hours after transfection, cells were treated with different concentrations of GW9662 for 30 min followed by stimulation with rosiglitazone. After 4 h, luciferase activities were assayed. […] After transfection, cells were also treated with GW9662 followed by stimulation with OCT (FIG. 16B), HEX (FIG. 16C) and HMB (FIG. 16D).
These astrocytes were pre-treated with PPARγ-antagonist GW9662 to nullify the involvement of PPARγ in reporter assay.

Another assay deals with NR2A, GluR1 and CREB. The experiment in a line: Immunoblot and immunofluorescence of synaptic molecules in WT hippocampal neurons. As to conditions: 5 μM HEX, 5 μM OCT, 50 μM HMB. As to the method: (FIG. 17A) Immunoblot analyses followed by densitometric analyses of NR2A (FIG. 17B), GluR1 (FIG. 17C) and CREB (FIG. 17D) were performed in Ppara-null and WT hippocampal neurons treated with 5 μM HEX, 5 μM OCT and 50 μM HMB. Data are mean±SD of three different experiments. ^ap<0.05 versus WT-control. Immunocytochemical analyses of NR2A (FIG. 17E) and GluR1 (FIG. 17F) in WT and Ppara-null hippocampal neurons treated with HEX, OCT and HMB. Hippocampal neurons were transduced with lenti-GFP for 48 h followed by treatment with different ligands. Immunoblot analyses followed by relative densitometric analyses of CREB in Ppara-null hippocampal neurons transduced with lentivirions containing different Ppara constructs followed by treatment with HEX (FIG. 17G-H), OCT (FIG. 17I-J) and HMB (FIG. 17K-L). Bands were scanned and presented as relative to control (FIG. 17H, HEX; FIG. 17J, OCT; FIG. 17L, HMB). Data are mean±SD of three different experiments. ^ap<0.05 vs FLPpara control.
Isolation of Mouse Hippocampal Neurons: Hippocampal neurons were isolated from fetuses (E18) of pregnant female Ppara-null and strain-matched WT littermate mice as described by us^6,13,35-36 with some modifications. Briefly, dissection and isolation procedures were performed in an ice-cold, sucrose buffer solution (sucrose 0.32 M, Tris 0.025 M; pH 7.4)^37. The skin and the skull were carefully removed from the brain by scissors followed by peeling off the meninges by a pair of fine tweezers. Next, a fine incision was made in the middle line around the circle of Willis and medial temporal lobe was opened up. Hippocampus was isolated as a thin slice of tissue located near the cortical edge of medial temporal lobe. Hippocampal tissues isolated from all fetal pups (n>10) were combined together and homogenized with 1 ml of trypsin for 5 minutes at 37° C. followed by neutralization of trypsin. The single cell suspension of hippocampal tissue was plated in the poly-D-lysine pre-coated 75 mm flask. Five min after plating, the supernatants were carefully removed and replaced with complete neurobasal media. The next day, 10 μM AraC was added to remove glial contamination in the neuronal culture. The pure cultures of hippocampal neurons were allowed to differentiate fully for 9-10 days before treatment^35,36,38.
For whole-cell and tissue lysates, samples were homogenized in RIPA buffer containing protease and phosphatase inhibitors (Sigma), passed 10 times through a 26-gauge needle, rotated end over end for 30 min at 4° C., and centrifuged for 10 min at 18,000×g. The supernatant was aliquoted and stored at −80° C. until use. Protein concentrations were determined using a NanoDrop 2000 (Thermo Fisher), and 15-30 μg sample was heat-denatured and resolved on 10% or 12% polyacrylamide-SDS gels, transferred to 0.45 μm nitrocellulose membranes under semidry conditions (15V for 12 min). Membranes were blocked for 1 h with blocking buffer (Li-Cor), incubated with primary antibodies overnight at 4° C. under shaking conditions, washed, incubated with IR-dye-labeled secondary antibodies (1:17,000; Li-Cor) for 45 min at room temperature, washed, and visualized with the Odyssey Infrared Imaging System (Li-Cor). Blots were converted to grayscale and then binary, analyzed using Fiji, and normalized to appropriate loading controls.
On the technique in general: In western blotting, separated proteins are transferred to a membrane and probed.

For assay [2], the system named is AMPA-driven calcium influx. The assay is described as follows: AMPA-driven calcium influx in transduced Ppara-null hippocampal neurons. As to the method: Ppara-null hippocampal neurons were transduced with lentivirions containing GFP (vector), FL-Ppara, and Y464D-Ppara for 48 h followed by treatment with vehicle (DMSO) (FIG. 11A), OCT (FIG. 11B), HEX (FIG. 11C), HMB (FIG. 11D), and WY14643 (FIG. 11E) for 24 h. Then neurons were stained for phalloidin to measure spine density. FIG. 11F) A representative picture of dendrite with spines (Cyan color) used for counting area of spine heads. Area of spine heads (FIG. 11G) and number of spines (FIG. 11H) in 10 μm of dendrites. Results are mean±SEM of 5 neurons per group. ^ap<0.05 vs vector only; ^bp<0.05 vs FL-Ppara. AMPA-driven calcium influx was measured in OCT (red), HEX (green) and HMB (purple)-treated Ppara-null hippocampal neurons transduced with lentivirions containing FL-Ppara (FIG. 11I), Y314D-Ppara (FIG. 11J), Y464D-Ppara (FIG. 11K), and Y314D/Y464D-Ppara (FIG. 11L). All neurons were treated with 50 μM of NMDA receptor antagonist N20C to inhibit passive calcium flow through NMDA receptor. (FIG. 11M-P) Similarly NMDA-driven calcium influx was measured in the lentivius-infected Ppara-null hippocampal neurons in the presence of different endogenous ligands. In these cases, Naspm-HCl was treated to stop the passive flow of calcium currents through AMPA receptor. Results are mean of three independent experiments.

For the compound `CCOC(=O)C(C)(C)C(C)O` (stereo not drawn) [HMB], in assay [1], the PPRE luciferase activity entry is given as “markedly increased” and the “effect of GW9662 on ligand-mediated increase in PPRE-luciferase activity” value is “remained unable to inhibit”. In the assay with NR2A, GluR1 and CREB, the “expression of CREB” value is recorded as “upregulated”, the “expression of GluR1” value is “upregulated” and the “expression of NR2A” value is on record as “upregulated”. The AMPA-mediated calcium influx entry in assay [2] (lenti-FL-Ppara) is “stimulated”. The AMPA-mediated calcium influx result in assay [2] (lenti-Y314D-Ppara) is “partially restore”. Besides, in assay [2] (lenti-Y314D/Y464D-Ppara), the AMPA-mediated calcium influx result is “remained unable to increase”. The AMPA-mediated calcium influx entry in assay [2] (lenti-Y464D-Ppara) is reported as “remained unable to increase”.
Regarding `CCCCCCCCC=CCCCCCCCC(N)=O` [OCT, 9-octadecenamide], the PPRE luciferase activity entry in assay [1] is given as “markedly increased”. Besides, in assay [1], the “effect of GW9662 on ligand-mediated increase in PPRE-luciferase activity” value is “remained unable to inhibit”. Moreover, the “expression of CREB” value with NR2A, GluR1 and CREB is on record as “upregulated”. Also, the “expression of GluR1” value in the assay on NR2A, GluR1 and CREB is “upregulated”. The “expression of NR2A” value in the assay on NR2A, GluR1 and CREB is “upregulated”. The AMPA-mediated calcium influx entry is listed as “stimulated” in assay [2] (lenti-FL-Ppara), “partially restore” in assay [2] (lenti-Y314D-Ppara), “remained unable to increase” in assay [2] (lenti-Y314D/Y464D-Ppara) and “remained unable to increase” in assay [2] (lenti-Y464D-Ppara).
Take `CCCCCCCCCCCCCCCC(N)=O` [HEX, hexadecanamide]: in assay [1], the PPRE luciferase activity result was “markedly increased” and the “effect of GW9662 on ligand-mediated increase in PPRE-luciferase activity” value is recorded as “remained unable to inhibit”. Besides, in the assay with NR2A, GluR1 and CREB, the “expression of CREB” value is “upregulated”, the “expression of GluR1” value is “upregulated” and the “expression of NR2A” value is given as “upregulated”. In addition, in assay [2] (lenti-FL-Ppara), the AMPA-mediated calcium influx entry is “stimulated”. Further, in assay [2] (lenti-Y314D-Ppara), the AMPA-mediated calcium influx result is “partially restore”. In addition, the AMPA-mediated calcium influx result in assay [2] (lenti-Y314D/Y464D-Ppara) was “remained unable to increase”. Moreover, the AMPA-mediated calcium influx result in assay [2] (lenti-Y464D-Ppara) is listed as “remained unable to increase”.
